Measurements taken from patent US8268792B2, “Use of an active ingredient combination that contains hydroxystilbene for preventing and/or treating diseases” (Carl-Friedrich Spaich, priority 2005, dated 2012).
Entries after “also recorded” stand apart in the source; their conditions may differ.

Legend:
[1] = In vivo accumulation of ERr 731® ingredients in dog plasma (100, 300, 1000 mg/kg/day); parameters: species or system dog (pure-bred beagles); settings: male and female dogs, ERr 731® 100, 300, 1000 mg/kg body weight/day, day 1
Protocol: (§1) These plasma samples were processed as follows: 500 μl of plasma were mixed with 25 μl of an internal standard working solution (2.5 ng/μl rhaponticin or rhapontigenin in methanol) and then mixed with 500 μl of isotonic NaCl solution and 2.5 ml of diethyl ether/butanol (9/1; v/v). After shaking and centrifugation (10 minutes at 4600 rpm), about 2 ml of the supernatant were removed and dried under a stream of nitrogen (at 60° C.). The pellet was taken up in 50 μl of methanol. Addition of 200 μl of distilled water was followed by renewed mixing, and 200 μl were pipetted into autosampler tubes (light-protected). 30 μl of the samples were injected for analysis into an LC-MS/MS system (PE Sciex API 3000). Chromatographic separation of the analytes took place on a Phenomenex Polymer X column with a gradient of an ammonium buffer solution and an acetonitrile/methanol mixture as mobile phase.
On day 1, 5 ml of blood were taken from the animals after 0, 0.5, 1, 2, 4, 8 and 24 hours in each case, and plasma was obtained. The analysis as described in section a) was carried out thereon in order to detect rhaponticin, deoxyrhaponticin, rhapontigenin, deoxyrhapontigenin, resveratrol and piceatannol in blood. The results of the test are depicted in FIG. 2a.

[2] = target: T1, estrogen receptor β (ERβ) (Homo sapiens, UniProt Q92731); experiment: ERβ/mC3-luciferase transactivation in transfected HEC-1B cells; format: cell-based; settings: HEC-1B cells cotransfected with hERβ and mC3-Luc, 24 hours incubation
T1 construct: expressed in transfected cells; host or cells: HEC-1B human endometrial adenocarcinoma cells (no endogenous ERα or ERβ)
From the text: They therefore represent a possible way of investigating, in a human and endometrial context, ligand-dependent effects of substances on the transactivation mechanisms in relation to different receptor subtypes and different estrogen-responsive promoters.
An established ERβ/mC3-luciferase system was employed. For this purpose, HEC-1B cells were applied in 24-well plates with a density of 95 000 cells/well (in Dulbecco's modified Essential Medium (DMEM/F12)). The next day, they were cotransfected with an ERβ-containing construct (hERβ/pSG2) and a triple-ERE-containing promoter/luciferase construct (mC3-Luc/pGL2) (Hillisch et al. Dissecting physiological roles of estrogen receptor alpha and beta with potent selective ligands from structure-based design. Mol. Endocrinol. 2004 July; 18:1599-609). The transient transfection took place using DOTAP (N-[1-(2,3-dioleoyloxy)]-N,N,N-trimethylammoniumpropane methylsulfate, Roth) as described by the manufacturer.
After 24 hours, the cells were treated with appropriate concentrations of the substances or substance mixtures to be investigated. […] The incubation time was 24 hours. The cells were then lysed. The Luciferase Assay® kit (Promega) was used to determine the luciferase activity on the one hand, and the BCA® kit (Sigma) was used to determine the protein content on the other hand. […]

[3] = Dissolving tests with ERr 731® in ethanol and glycerol; format: physicochemical
[4] = system: transcription factor NF-κB; settings: cited from earlier work
[5] = Pharmacokinetics of ERr 731® ingredients in subject after oral intake (plasma, LC-MS/MS); format: in vivo, human; settings: volunteer
Protocol: Subsequently, 10 ml of blood was taken at various times (as indicated in FIG. 1) and the plasma was obtained by centrifugation.
as §1

[6] = system: bacteria of the human intestinal tract; settings: cited from earlier work
[7] = system: hormone-sensitive and -insensitive prostate cancer cells; settings: pure resveratrol; cited from earlier work
HL60 leukemia cells = settings: cited from earlier work
[8] = system: AR-dependent gene expression; settings: depending on the concentration; cited from earlier work
[9] = Test A: 200 mg of dry extract in 50 ml of glycerol R
[10] = Test B: 200 mg of dry extract in 50 ml of ethanol 30% R
[11] = Test C: 200 mg of dry extract in 50 ml of ethanol 50% R
[12] = Test D: 200 mg of dry extract in 50 ml of ethanol 86% R

T1 sequence (Q92731 whole entry): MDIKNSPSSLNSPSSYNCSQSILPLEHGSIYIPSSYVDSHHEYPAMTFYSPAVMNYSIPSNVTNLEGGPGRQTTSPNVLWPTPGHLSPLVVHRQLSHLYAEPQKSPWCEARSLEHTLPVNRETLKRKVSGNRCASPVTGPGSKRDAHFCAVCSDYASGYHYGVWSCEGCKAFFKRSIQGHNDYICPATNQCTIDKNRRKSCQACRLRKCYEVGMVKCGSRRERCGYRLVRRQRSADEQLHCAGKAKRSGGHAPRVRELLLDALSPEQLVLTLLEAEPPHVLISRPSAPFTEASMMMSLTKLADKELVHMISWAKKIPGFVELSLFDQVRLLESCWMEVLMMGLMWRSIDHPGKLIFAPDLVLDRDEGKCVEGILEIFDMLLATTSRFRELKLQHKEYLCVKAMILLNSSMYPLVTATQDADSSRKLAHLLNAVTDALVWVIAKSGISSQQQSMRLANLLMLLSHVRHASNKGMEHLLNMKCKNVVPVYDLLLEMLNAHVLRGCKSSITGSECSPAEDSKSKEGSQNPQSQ

Row | Compound | accumulation (AUC 0-24 h) in dog plasma [1] | content found dissolved [3, 9] | dissolved, of theory [3, 9] | content found dissolved [3, 10] | dissolved, of theory [3, 10] | content found dissolved [3, 11] | dissolved, of theory [3, 11] | content found dissolved [3, 12] | dissolved, of theory [3, 12] | effect on transcription factor NF-κB [4] | also measured
1 | COc1ccc(C=Cc2cc(O)cc(O[C@@H]3O[C@H](CO)[C@@H](O)[C@H](O)[C@H]3O)c2)cc1 [deoxyrhaponticin] | dose-dependent accumulation | 27.1% deoxyrhaponticin | (90.6% of theory) | 25.2% deoxyrhaponticin | (84.2% of theory) | 29.0% deoxyrhaponticin | (97.0% of theory) | 29.5% deoxyrhaponticin | (98.7% of theory) |  | 
2 | Oc1cc(O)cc(/C=C/c2ccc(O)c(O)c2)c1 [piceatannol] |  |  |  |  |  |  |  |  |  | inhibitory effect | 
3 | Oc1ccc(C=Cc2cc(O)cc(O)c2)cc1 [resveratrol] |  |  |  |  |  |  |  |  |  |  | apoptotic effect on prostate cancer cells [7]: apoptotic effect; apoptotic effect on HL60 leukemia cells (HL60 leukemia cells): apoptotic effect; AR-dependent gene expression [8]: an increase or inhibition of AR-dependent gene expression was observed

Second part, led by results:

Row | accumulation (AUC 0-24 h) in dog plasma [1] | content found dissolved [3, 9] | dissolved, of theory [3, 9] | content found dissolved [3, 10] | dissolved, of theory [3, 10] | content found dissolved [3, 11] | dissolved, of theory [3, 11] | content found dissolved [3, 12] | dissolved, of theory [3, 12] | Compound | effect on transcription factor NF-κB [4] | also measured
4 | undetectable |  |  |  |  |  |  |  |  | COc1ccc(C=Cc2cccc(O)c2)cc1O [deoxyrhapontigenin, 3′,5-Dihydroxy-4′-methoxystilbene] |  | activation of ERβ (relative luciferase activity vs DMSO control) [2]: activate the ERβ dose-dependently; also recorded: effective only at higher concentrations
5 | dose-dependent accumulation | 55.1% rhaponticin | (89.0% of theory) | 52.2% rhaponticin | (84.3% of theory) | 58.8% rhaponticin | (95.0% of theory) | 59.8% rhaponticin | (96.6% of theory) | COc1ccc(C=Cc2cc(O)cc(O[C@@H]3O[C@H](CO)[C@@H](O)[C@H](O)[C@H]3O)c2)cc1O [rhaponticin, 3,3′,5-Trihydroxy-4′-methoxystilbene 3-O-β-D-glucopyranoside] | inactive | time of maximum in the blood ([5]; oral 40 mg ERr 731®): 3 to 4 h; detection in the blood (plasma) ([5]; oral 10 tablets = 40 mg ERr 731®): detected in the blood; degradation by intestinal bacteria [6]: degraded by bacteria of the human intestinal tract to rhapontigenin
